Drawing on patent US20230131192A1, “1H-PYRAZOLO[4,3-d]PYRIMIDINE COMPOUNDS AS TOLL-LIKE RECEPTOR 7 (TLR7) AGONISTS” (BRISTOL-MYERS SQUIBB COMPANY, priority 2020, published 2023), this text covers EC50 for four compounds.

The subject of one assay is CD69. The assay can be described thus: Induction of CD69 in human whole blood. It counts as cell-based. Particulars: 17 hrs, CD69 surface staining, 100% set to 1 uM of resiquimod, average where assay was performed multiple times, read-out: hWB CD69 EC50. On the procedure:
The induction of Type I interferon (IFN) MX-1 genes and the B-cell activation marker CD69 are downstream events that occur upon activation of the TLR7 pathway. The following is a human whole blood assay that measures their induction in response to a TLR7 agonist.
Heparinized human whole blood was harvested from human subjects and treated with test TLR7 agonist compounds at 1 mM. The blood was diluted with RPMI 1640 media and Echo was used to predot 10 nL per well giving a final concentration of 1 uM (10 nL in 10 uL of blood). After mixing on a shaker for 30 sec, the plates were covered and placed in a 37° C. chamber for o/n=17 hrs. Fixing/lysis buffer was prepared (5×→1× in H2O, warm at 37° C.; Cat # BD 558049) and kept the perm buffer (on ice) for later use.
For surface markers staining (CD69): prepared surface Abs: 0.045 ul hCD14-FITC (ThermoFisher Cat # MHCD1401)+0.6 ul hCD19-ef450 (ThermoFisher Cat #48-0198-42)+1.5 ul hCD69-PE (cat # BD555531)+0.855 ul FACS buffer. Added 3 ul/well, spin1000 rpm for 1 min and mixed on shaker for 30 sec, put on ice for 30 mins. Stop stimulation after 30 minutes with 70 uL of prewarmed 1× fix/lysis buffer and use Feliex mate to resuspend (15 times, change tips for each plate) and incubate at 37 C for 10 minutes.
Centrifuge at 2000 rpm for 5 minutes aspirate with HCS plate washer, mix on shaker for 30 sec and then wash with 70 uL in dPBS and pelleted 2×s (2000 rpm for 5 min) and 50 ul wash in FACS buffer pelleted 1×s(2000 rpm for 5 min). Mix on shaker for 30 sec. For Intracellular markers staining (MX-1): Add 50 ul of BD Perm buffer III and mix on shaker for 30 sec. Incubate on ice for 30 minutes (in the dark). Wash with 50 uL of FACS buffer 2× (spin @2300 rpm×5 min after perm) followed by mixing on shaker for 30 sec. Resuspended in 20 ul of FACS buffer containing MX1 antibody ( )(4812)-Alexa 647: Novus Biologicals #NBP2-43704AF647) 20 ul FACS bf+0.8 ul hlgG+0.04 ul MX-1. Spin 1000 rpm for 1 min, mix on shaker for 30se and the samples were incubated at RT in the dark for 45 minutes followed by washing 2×FACS buffer (spin @2300 rpm×5 min after perm). Resuspend 20 ul (35 uL total per well) of FACS buffer and cover with foil and place in 4° C. to read the following day. Plates were read on iQuePlus. The results were loaded into toolset and […] curves are generated in curve master. The y-axis 100% is set to 1 uM of resiquimod.

The target of a further assay is T1, human TLR7 (Homo sapiens, UniProt Q9NYK1).
T1 construct: host or cells: HEK-Blue TLR7 cells (engineered human embryonic kidney cells)
T1 sequence (Q9NYK1 27-1049): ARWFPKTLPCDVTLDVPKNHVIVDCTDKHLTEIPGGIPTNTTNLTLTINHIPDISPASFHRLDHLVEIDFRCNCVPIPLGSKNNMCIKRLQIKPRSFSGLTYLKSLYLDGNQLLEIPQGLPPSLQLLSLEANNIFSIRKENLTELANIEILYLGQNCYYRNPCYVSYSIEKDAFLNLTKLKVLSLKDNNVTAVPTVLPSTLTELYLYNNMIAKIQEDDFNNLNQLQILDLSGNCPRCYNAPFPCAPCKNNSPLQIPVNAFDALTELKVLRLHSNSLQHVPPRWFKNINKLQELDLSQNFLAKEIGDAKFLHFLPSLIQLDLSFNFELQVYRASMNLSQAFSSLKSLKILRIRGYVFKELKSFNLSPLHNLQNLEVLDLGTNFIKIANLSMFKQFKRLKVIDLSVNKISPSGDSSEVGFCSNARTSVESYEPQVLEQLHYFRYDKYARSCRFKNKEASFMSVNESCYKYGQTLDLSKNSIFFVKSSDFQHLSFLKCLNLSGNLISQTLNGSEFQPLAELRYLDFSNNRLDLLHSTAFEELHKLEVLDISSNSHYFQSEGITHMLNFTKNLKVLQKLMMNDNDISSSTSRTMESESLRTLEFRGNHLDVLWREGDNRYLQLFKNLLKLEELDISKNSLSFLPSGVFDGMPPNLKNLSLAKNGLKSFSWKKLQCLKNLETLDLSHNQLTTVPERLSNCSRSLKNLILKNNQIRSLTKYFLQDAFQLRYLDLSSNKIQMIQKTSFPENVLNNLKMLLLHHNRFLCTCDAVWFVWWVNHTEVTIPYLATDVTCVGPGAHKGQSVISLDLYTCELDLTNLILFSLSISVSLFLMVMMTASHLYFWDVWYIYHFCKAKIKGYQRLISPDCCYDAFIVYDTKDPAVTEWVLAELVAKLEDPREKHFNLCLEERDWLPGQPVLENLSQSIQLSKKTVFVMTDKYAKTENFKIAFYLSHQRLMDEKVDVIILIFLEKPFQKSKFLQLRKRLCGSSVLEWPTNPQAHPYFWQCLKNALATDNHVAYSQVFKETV
Description: Human TLR7 agonist (reporter) activity assay, HEK-Blue TLR7 cells, SEAP reporter. The note with it: 18 h treatment, average where assay was performed multiple times, read-out: hTLR7 Agonism EC50. It counts as cell-based. How it is done: This procedure describes a method for assaying human TLR7 (hTLR7) agonist activity of the compounds disclosed in this specification.
HEK-Blue™ TLR7 cells were added to each well of a 384-well tissue-culture plate (15,000 cells per well) and incubated 16-18 h at 37° C., 5% CO2. Compounds (100 nl) were dispensed into wells containing the HEK-Blue™ TLR cells and the treated cells were incubated at 37° C., 5% CO2. After 18 h treatment ten microliters of freshly-prepared Quanti-Blue™ reagent (Invivogen) was added to each well, incubated for 30 min (37° C., 5% CO2) and SEAP levels measured using an Envision plate reader (OD=620 nm). The half maximal effective concentration values (EC50; compound concentration which induced a response halfway between the assay baseline and maximum) were calculated.

For `COc1cc(CN2CC(OC)C2)ccc1Cn1ncc2nc(N)nc(NCc3noc(C)n3)c21` [Compound 118, 1-({2-methoxy-4-[(3-methoxyazetidin-1-yl)methyl]phenyl}methyl)-N7-[(5-methyl-1,2,4-oxadiazol-3-yl)methyl]-1H-pyrazolo[4,3-d]pyrimidine-5,7-diamine], the EC50 with CD69 turned out to be 0.0043 µM; on human TLR7 it was 0.0479 µM.

Take `COc1cc(CN2CCN(C)CC2)ccc1Cn1ncc2nc(N)nc(NCc3noc(C4CC4)n3)c21` [Compound 129, N7-[(5-cyclopropyl-1,2,4-oxadiazol-3-yl)methyl]-1-({2-methoxy-4-[(4-methylpiperazin-1-yl)methyl]phenyl}methyl)-1H-pyrazolo[4,3-d]pyrimidine-5,7-diamine]: the values for the concentration for a half-maximal effect (EC50) in the assay with CD69 and at human TLR7 were 0.0053 µM and 0.0478 µM, respectively.

As to `COc1cc(CNC2CCOCC2)ccc1Cn1nc(C)c2nc(N)nc(NCc3cc(C)on3)c21` [Compound 112, 1-[(2-methoxy-4-{[(oxan-4-yl)amino]methyl}phenyl)methyl]-3-methyl-N7-[(5-methyl-1,2-oxazol-3-yl)methyl]-1H-pyrazolo[4,3-d]pyrimidine-5,7-diamine], the EC50 in the assay with CD69 came out at 0.0103 µM; at human TLR7 it was 0.0959 µM.

For the compound `COc1cc(CN2CCN(C)CC2)ccc1Cn1ncc2nc(N)nc(NCc3noc(C)n3)c21` [Compound 115, 1-({2-methoxy-4-[(4-methylpiperazin-1-yl)methyl]phenyl}methyl)-N7-[(5-methyl-1,2,4-oxadiazol-3-yl)methyl]-1H-pyrazolo[4,3-d]pyrimidine-5,7-diamine], the half-maximal effective concentration (EC50) came out at 0.0155 µM in the assay with CD69 and 0.0672 µM on human TLR7.

In general, EC50 refers to the midpoint of the concentration-response curve.
